Data reported in patent US8552176B2 (priority 2010, dated 2013).

Tests used:
NCI-H460 = test: cells; type: cell-based, human; conditions: read-out: GI50 NCI-H460 lung
HT29 [1] = test: cells; type: cell-based, human
SF-268 = test: cells; type: cell-based, human; conditions: read-out: GI50 SF-268 CNS
[2] = test system: ten-member panel of human carcinomas; test: cells; type: cell-based
NCI-H226 = test: NCI 60 Human Tumor Cell Line Anticancer Screen; type: cell-based; conditions: NCI-H226, Non-small cell lung
NCI-H23 = test: NCI 60 Human Tumor Cell Line Anticancer Screen; type: cell-based; conditions: NCI-H23, Non-small cell lung
NCI-H322M = test: NCI 60 Human Tumor Cell Line Anticancer Screen; type: cell-based; conditions: Non-small cell lung
COLO 205 = test: NCI 60 Human Tumor Cell Line Anticancer Screen; type: cell-based; conditions: COLO 205, Colon
HT29 [3] = test: NCI 60 Human Tumor Cell Line Anticancer Screen; type: cell-based; conditions: HT29, Colon
KM12 = test: NCI 60 Human Tumor Cell Line Anticancer Screen; type: cell-based; conditions: KM12, Colon
SNB-19 = test: NCI 60 Human Tumor Cell Line Anticancer Screen; type: cell-based; conditions: SNB-19, CNS
U251 = test: NCI 60 Human Tumor Cell Line Anticancer Screen; type: cell-based; conditions: U251, CNS
LOX IMVI = test: NCI 60 Human Tumor Cell Line Anticancer Screen; type: cell-based; conditions: Melanoma
M14 = test: NCI 60 Human Tumor Cell Line Anticancer Screen; type: cell-based; conditions: M14, Melanoma
SK-MEL-2 = test: NCI 60 Human Tumor Cell Line Anticancer Screen; type: cell-based; conditions: SK-MEL-2, Melanoma
SK-MEL-28 = test: NCI 60 Human Tumor Cell Line Anticancer Screen; type: cell-based; conditions: SK-MEL-28, Melanoma
SK-MEL-5 = test: NCI 60 Human Tumor Cell Line Anticancer Screen; type: cell-based; conditions: SK-MEL-5, Melanoma
UACC-62 = test: NCI 60 Human Tumor Cell Line Anticancer Screen; type: cell-based; conditions: UACC-62, Melanoma
OVCAR-4 = test: NCI 60 Human Tumor Cell Line Anticancer Screen; type: cell-based; conditions: OVCAR-4, Ovary
OVCAR-5 = test: NCI 60 Human Tumor Cell Line Anticancer Screen; type: cell-based; conditions: OVCAR-5, Ovary
A498 = test: NCI 60 Human Tumor Cell Line Anticancer Screen; type: cell-based; conditions: A498, Renal
ACHN = test: NCI 60 Human Tumor Cell Line Anticancer Screen; type: cell-based; conditions: Renal
TK-10 = test: NCI 60 Human Tumor Cell Line Anticancer Screen; type: cell-based; conditions: TK-10, Renal
MCF7 = test: NCI 60 Human Tumor Cell Line Anticancer Screen; type: cell-based; conditions: MCF7, Breast
MDA-MB-231 = test: NCI 60 Human Tumor Cell Line Anticancer Screen; type: cell-based; conditions: MDA-MB-231, Breast
HS 578T = test: NCI 60 Human Tumor Cell Line Anticancer Screen; type: cell-based; conditions: Breast
BT-549 = test: NCI 60 Human Tumor Cell Line Anticancer Screen; type: cell-based; conditions: BT-549, Breast
T-47D = test: NCI 60 Human Tumor Cell Line Anticancer Screen; type: cell-based; conditions: Breast
MDA-MB-468 = test: NCI 60 Human Tumor Cell Line Anticancer Screen; type: cell-based; conditions: MDA-MB-468, Breast

## CON(CCCCc1ccc(N(CCCl)CCCl)cc1)C1OCC(O)C1O (stereo not shown) [Compound 60]
NCI-H460
  GI50: 1.7 ± 0.4 µM
HT29 [1]
  improved activity over the parent drug: 12 fold
HT29 [1]; read-out: GI50 HT29 colorectal
  GI50: 0.41 ± 0.06 µM
SF-268
  GI50: 1.5 ± 0.1 µM
[2]
  improvement in average growth inhibition across the cell panel: 8 fold
  increases in potency compared to 1: up to 15 fold
NCI-H226
  GI50: 0.925 µM
NCI-H226; 10 μM
  Inhibition at 10 μM: 84.25%
NCI-H23
  GI50: 7.15 µM
NCI-H23; 10 μM
  Inhibition at 10 μM: 54.44%
NCI-H322M
  GI50: > 100 µM
NCI-H322M; 10 μM
  Inhibition at 10 μM: 99.02%
COLO 205
  GI50: 12.7 µM
COLO 205; 10 μM
  Inhibition at 10 μM: 93.34%
HT29 [3]
  GI50: 26.6 µM
HT29 [3]; 10 μM
  Inhibition at 10 μM: 70.71%
KM12
  GI50: 30 µM
KM12; 10 μM
  Inhibition at 10 μM: 97.57%
SNB-19
  GI50: 33.4 µM
SNB-19; 10 μM
  Inhibition at 10 μM: 65.81%
U251
  GI50: 13.1 µM
U251; 10 μM
  Inhibition at 10 μM: 59.94%
LOX IMVI
  GI50: 8.61 µM
LOX IMVI; 10 μM
  Inhibition at 10 μM: 54.82%
M14
  GI50: 9.25 µM
M14; 10 μM
  Inhibition at 10 μM: 67.23%
SK-MEL-2
  GI50: 20.2 µM
SK-MEL-2; 10 μM
  Inhibition at 10 μM: 100.16%
SK-MEL-28
  GI50: 36.5 µM
SK-MEL-28; 10 μM
  Inhibition at 10 μM: 116.87%
SK-MEL-5
  GI50: 17.7 µM
SK-MEL-5; 10 μM
  Inhibition at 10 μM: 79.00%
UACC-62
  GI50: 1.69 µM
UACC-62; 10 μM
  Inhibition at 10 μM: 52.06%
OVCAR-4
  GI50: 29.2 µM
OVCAR-4; 10 μM
  Inhibition at 10 μM: 77.16%
OVCAR-5
  Inhibition at 10 μM: 111.11%
A498
  GI50: 21.8 µM
A498; 10 μM
  Inhibition at 10 μM: 114.47%
ACHN
  GI50: 4.34 µM
ACHN; 10 μM
  Inhibition at 10 μM: 14.27%
TK-10
  GI50: 31.7 µM
TK-10; 10 μM
  Inhibition at 10 μM: 97.20%
MCF7
  GI50: 4.51 µM
MCF7; 10 μM
  Inhibition at 10 μM: 32.40%
MDA-MB-231
  GI50: 1.39 µM
MDA-MB-231; 10 μM
  Inhibition at 10 μM: 87.54%
HS 578T
  GI50: 24.7 µM
HS 578T; 10 μM
  Inhibition at 10 μM: 139.25%
BT-549
  GI50: 13.4 µM
BT-549; 10 μM
  Inhibition at 10 μM: 38.53%
T-47D
  GI50: 6.37 µM
T-47D; 10 μM
  Inhibition at 10 μM: 48.01%
MDA-MB-468
  GI50: 7.25 µM
MDA-MB-468; 10 μM
  Inhibition at 10 μM: 43.87%
